Measured values as given in patent US12612389B2, “Benzofuran-based N-acylhydrazone derivative and pharmaceutical composition comprising same” (KOREA RESEARCH INSTITUTE OF BIOSCIENCE AND BIOTECHNOLOGY, priority 2019, dated 2026).

How the values were obtained:
HeLa cells = test: Anti-proliferative activity test in HeLa cell line (MTT); type: cell-based; details: Homo sapiens, 48 h, grown for 2 days, mean of 2
Experimental: HeLa cells (American Type Culture Collection: ATCC, USA), a human cervical cancer cell line, were seeded in a 96-well plate at 3×10^3 cells/well, and the cells were then treated with compounds of Examples or Comparative Example according to the present invention and grown for 2 days. Then, MTT (3-(4,5-dimethylthiazol-2-yl)-2,5-diphenyltetrazolium bromide) reagent was added at 10 μL/well. After 2 hours, absorbance was measured at “OD 450” and statistical values were obtained using Prism™6 program. The data shown in Table below are mean values of results obtained by repeating the analysis twice.

K562/ADR = test: Anti-proliferative activity test in cancer cells exhibiting multidrug resistance (MTT); type: cell-based; details: for Resistance Factor: ratio IC50 K562/ADR to IC50 K562
Experimental: (§1) HeLa cells (American Type Culture Collection: ATCC, USA), a human cervical cancer cell line, were seeded in a 96-well plate at 3×10^3 cells/well, and the cells were then treated with compounds of Examples or Comparative Example according to the present invention and grown for 2 days. Then, MTT (3-(4,5-dimethylthiazol-2-yl)-2,5-diphenyltetrazolium bromide) reagent was added at 10 μL/well. […] The data shown in Table below are mean values of results obtained by repeating the analysis twice. Specifically, K562 and MCF7 (Bio Evaluation Center, Korea Research Institute of Bioscience and Biotechnology, Korea) and multidrug-resistant cell lines of each of these cell lines, i.e., K562/ADR and MCF7/ADR (Bio Evaluation Center, Korea Research Institute of Bioscience and Biotechnology, Korea), were cultured on microtiter plates (1-3×10^3 cells/well). […] The data shown in Table below are mean values of results obtained by repeating the analysis three times.

MCF7/ADR = test: as above; type: cell-based; details: for Resistance Factor: ratio IC50 MCF7/ADR to IC50 MCF7
Experimental: as §1

[1] = Metabolic stability test in liver microsomes; type: in vitro ADME; details: 0.5 mg protein/mL, 37° C.
Experimental: (§2) The test compounds at a concentration of […] were administered in the presence or absence of NADPH (1 mM) to liver […] (0.5 mg protein/mL) of humans, rats and mice, and metabolic stability was tested at 37° C. for 30 minutes. In addition, buspirone was used as a positive control. Results thereof are shown in Table below and FIGS. 4A to 4E.

K562 = test: Anti-proliferative activity test in cancer cells exhibiting multidrug resistance (MTT), parent line; type: cell-based; details: Homo sapiens, 96 h, 4 days
Experimental: as §1

MCF7 = test: as above; type: cell-based; details: Homo sapiens, 96 h, 4 days
Experimental: as §1

Stability test in plasma [2] = type: in vitro ADME; parameters: Residue % (180 minutes elapsed), Mean: dose or concentration left out as unconfirmed; details: 37° C.
Experimental: In order to test the stability (in vivo) of the Example compounds according to the present invention, the compounds of Examples 2, 3, 4, 8 and 15 were administered intravenously, and plasma concentrations over time were observed. In addition, procaine was used as a positive control. Plasma stability was measured three times by administering the test compound at a concentration […] to human, rat, or mouse plasma (90 μL) at 37° C. Results thereof are shown in Table below and FIGS. 3A to 3E.

Stability test in plasma [3] = type: in vitro ADME; details: Rat plasma, 37° C.; for Residue % (180 minutes elapsed), Mean: 5 mM
Experimental: In order to test the stability (in vivo) of the Example compounds according to the present invention, the compounds of Examples 2, 3, 4, 8 and 15 were administered intravenously, and plasma concentrations over time were observed. In addition, procaine was used as a positive control. Plasma stability was measured three times by administering the test compound at a concentration of 5 mM to human, rat, or mouse plasma (90 μL) at 37° C. Results thereof are shown in Table below and FIGS. 3A to 3E.

[4] = Stability in buffer (line of the metabolic stability test); type: in vitro ADME
Experimental: as §2

CCOCCn1c(Br)c(/C=N/NC(=O)c2cc3cc(C)ccc3o2)c2ccccc21 [Example 5, (E)-N′-[(2-bromo-1-(2-ethoxyethyl)-1H-indol-3-yl]methylene}-5-methylbenzofuran-2-carbohydrazide]
IC50 (HeLa cells): 263 nM

COc1cc2c(c(OC)c1OC)-c1ccc(OC)c(=O)cc1[C@@H](NC(C)=O)CC2 [Colchicine, colchicine]
Resistance Factor (K562/ADR): 22.91 | Resistance Factor (MCF7/ADR): 34.15

CCOCCn1c(Cl)c(/C=N/NC(=O)c2cc3c(OC)cc(OC)cc3o2)c2ccccc21 [Example 18, (E)-N′-[(2-chloro-1-(2-ethoxyethyl)-1H-indol-3-yl]methylene}-4,6-dimethoxybenzofuran-2-carbohydrazide]
IC50 (HeLa cells): 563 nM

CCOCCn1c(Cl)c(/C=N/NC(=O)c2cc3cc(C)ccc3o2)c2cc(F)ccc21 [Example 10, (E)-N′-[(2-chloro-1-(2-ethoxyethyl)-5-fluoro-1H-indol-3-yl]methylene}-5-methylbenzofuran-2-carbohydrazide]
IC50 (HeLa cells): 221 nM

O=C1CC2(CCCC2)CC(=O)N1CCCCN1CCN(c2ncccn2)CC1 [Buspirone, buspirone, reference compound]
Residue (%) after culturing for 30 min ([1]; Human, +NADPH): 2.21 ± 0.03% | Residue (%) after culturing for 30 min ([1]; Human, −NADPH): 91.06 ± 0.40% | Residue (%) after culturing for 30 min ([1]; Mouse, +NADPH): 0.32 ± 0.05% | Residue (%) after culturing for 30 min ([1]; Mouse, −NADPH): 94.74 ± 0.74% | Residue (%) after culturing for 30 min ([1]; Rat, +NADPH): 0.41 ± 0.02% | Residue (%) after culturing for 30 min ([1]; Rat, −NADPH): 93.08 ± 1.21%

CCOC(=O)Cn1c(C)c(/C=N/NC(=O)c2cc3c(ccc4ccccc43)o2)c2ccccc21 [Comparative Example 1, (E)-ethyl 2-(2-methyl-3-((2-(naphtho[2,1-b]furan-2-carbonyl)hydrazono)methyl)-1H-indol-1-yl)acetate, reference compound]
IC50 (HeLa cells): 562 nM

CCOCCn1c(Cl)c(/C=N/NC(=O)c2cc3cc(OC)ccc3o2)c2ccccc21 [Example 14, (E)-N′-[(2-chloro-1-(2-ethoxyethyl)-1H-indol-3-yl]methylene}-5-methoxybenzofuran-2-carbohydrazide]
IC50 (HeLa cells): 262 nM

CC(=O)O[C@H]1C(=O)[C@@]2(C)[C@H]([C@H](OC(=O)c3ccccc3)[C@]3(O)C[C@H](OC(=O)[C@H](O)[C@@H](NC(=O)c4ccccc4)c4ccccc4)C(C)=C1C3(C)C)[C@]1(OC(C)=O)CO[C@@H]1C[C@@H]2O [Taxol, taxol]
IC50 (K562): 1.35 nM | IC50 (MCF7): 2.35 nM | IC50 (K562/ADR; Homo sapiens, 96 h, K562/ADR (multidrug-resistant), 4 days, MTT): 700 nM | Resistance Factor (K562/ADR): 519.6 | IC50 (MCF7/ADR; Homo sapiens, NCI/ADR-RES, 96 h, MCF7/ADR (multidrug-resistant), 4 days, MTT): 1030 nM | Resistance Factor (MCF7/ADR): 438.38

CCOCCn1c(Cl)c(/C=N/NC(=O)c2cc3cc(Cl)ccc3o2)c2ccccc21 [Example 16, (E)-5-chloro-N′-{[2-chloro-1-(2-ethoxyethyl)-1H-indol-3-yl]methylene}benzofuran-2-carbohydrazide]
IC50 (HeLa cells): 455 nM

CCN(CC)CCOC(=O)c1ccc(N)cc1 [Procaine, procaine, reference compound]
Residue % (180 minutes elapsed), Mean (Stability test in plasma [2]; Human plasma): 0.45% | Residue % (180 minutes elapsed), Mean (Stability test in plasma [2]; Mouse plasma): 1.06% | Residue % (180 minutes elapsed), Mean (Stability test in plasma [3]): 1.89%

CCOCCn1c(Cl)c(/C=N/NC(=O)c2cc3cc(C)ccc3o2)c2cc(OC(F)(F)F)ccc21 [Example 12, (E)-N′-[(2-chloro-1-(2-ethoxyethyl)-5-(trifluoromethoxy)-1H-indol-3-yl]methylene}-5-methylbenzofuran-2-carbohydrazide]
IC50 (HeLa cells): 619 nM

CCOCCn1c(Cl)c(/C=N/NC(=O)c2cc3cc(C)ccc3o2)c2ccc(OC)cc21 [Example 9, (E)-N′-[(2-chloro-1-(2-ethoxyethyl)-6-methoxy-1H-indol-3-yl]methylene}-5-methylbenzofuran-2-carbohydrazide]
IC50 (HeLa cells): 232 nM

Cc1ccc2oc(C(=O)N/N=C/c3c(Cl)n(C)c4ccccc34)cc2c1 [Example 2, (E)-N′-[(2-chloro-1-methyl-1H-indol-3-yl)methylene]-5-methylbenzofuran-2-carbohydrazide]
IC50 (HeLa cells): 892 nM | Residue % (180 minutes elapsed), Mean (Stability test in plasma [2]; Human plasma): 90.43% | half-life at 5 mM (Stability test in plasma [2]; Human plasma): > 3 h | Residue % (180 minutes elapsed), Mean (Stability test in plasma [2]; Mouse plasma): 55.82% | half-life at 5 mM (Stability test in plasma [2]; Mouse plasma): > 3 h | half-life at 5 mM (Stability test in plasma [3]): > 3 h | Residue % (180 minutes elapsed), Mean (Stability test in plasma [3]): 75.82% | Residue (%) after culturing for 30 min ([1]; Human, +NADPH): 8.69 ± 0.44% | Residue (%) after culturing for 30 min ([1]; Human, −NADPH): 36.40 ± 1.90% | Residue (%) after culturing for 30 min ([1]; Mouse, +NADPH): 2.84 ± 0.34% | Residue (%) after culturing for 30 min ([1]; Mouse, −NADPH): 11.59 ± 1.06% | Residue (%) after culturing for 30 min ([1]; Rat, +NADPH): 2.99 ± 0.64% | Residue (%) after culturing for 30 min ([1]; Rat, −NADPH): 41.45 ± 0.93% | Residue (%) after culturing for 30 min [4]: 77.94 ± 7.04%

Cc1ccc2oc(C(=O)N/N=C/c3c(Cl)[nH]c4ccccc34)cc2c1 [Example 1, (E)-N′-[(2-chloro-1H-indol-3-yl)methylene]-5-methylbenzofuran-2-carbohydrazide]
IC50 (HeLa cells): 3880 nM

CCOC(=O)Cn1c(C)c(/C=N/NC(=O)c2cc3c(OC)cc(OC)cc3o2)c2ccccc21 [Example 20, (E)-ethyl-2-(3-((2-(4,6-dimethoxybenzofuran-2-carbonyl) hydrazinylidene)methyl)-2-methyl-1H-indol-1-yl)acetate]
IC50 (HeLa cells): 500 nM

CCOC(=O)Cn1c(Cl)c(/C=N/NC(=O)c2cc3cc(C)ccc3o2)c2ccccc21 [Example 3, ethyl (E)-2-{2-chloro-3-[(2-(5-methylbenzofuran-2-carbonyl)hydrazinylidene)methyl]-1H-indol-1-yl}acetate]
IC50 (HeLa cells): 243 nM | Residue % (180 minutes elapsed), Mean (Stability test in plasma [2]; Human plasma): 56.52% | half-life at 5 mM (Stability test in plasma [2]; Human plasma): > 3 h | Residue % (180 minutes elapsed), Mean (Stability test in plasma [2]; Mouse plasma): 0.12% | half-life at 5 mM (Stability test in plasma [2]; Mouse plasma): 0.0933 h | half-life at 5 mM (Stability test in plasma [3]): 0.0767 h | Residue % (180 minutes elapsed), Mean (Stability test in plasma [3]): 0.21% | Residue (%) after culturing for 30 min ([1]; Human, +NADPH): 12.34 ± 0.69% | Residue (%) after culturing for 30 min ([1]; Human, −NADPH): 22.26 ± 0.72% | Residue (%) after culturing for 30 min ([1]; Mouse, +NADPH): 2.50 ± 0.11% | Residue (%) after culturing for 30 min ([1]; Mouse, −NADPH): 6.81 ± 0.17% | Residue (%) after culturing for 30 min ([1]; Rat, +NADPH): 1.39 ± 0.12% | Residue (%) after culturing for 30 min ([1]; Rat, −NADPH): 8.53 ± 0.46% | Residue (%) after culturing for 30 min [4]: 89.02 ± 4.39%

CCOCCn1c(Cl)c(/C=N/NC(=O)c2cc3cc(C)ccc3o2)c2cc(C)ccc21 [Example 13, (E)-N′-[(2-chloro-1-(2-ethoxyethyl)-5-methyl-1H-indol-3-yl]methylene}-5-methylbenzofuran-2-carbohydrazide]
IC50 (HeLa cells): 337 nM

CCOCCn1c(Cl)c(/C=N/NC(=O)c2cc3cc(C)ccc3o2)c2cc(Cl)ccc21 [Example 11, (E)-N′-[(2,5-dichloro-1-(2-ethoxyethyl)-1H-indol-3-yl]methylene}-5-methylbenzofuran-2-carbohydrazide]
IC50 (HeLa cells): 243 nM

CCOCCn1c(Cl)c(/C=N/NC(=O)c2cc3cc(NC(C)=O)ccc3o2)c2ccccc21 [Example 19, (E)-N′-{2-[2-((2-chloro-1-(2-ethoxyethyl)-1H-indol-3-yl)methylene]hydrazine-1-carbonyl}benzofuran-5-yl)acetamide]
IC50 (HeLa cells): 4520 nM

COCCn1c(Cl)c(/C=N/NC(=O)c2cc3cc(C)ccc3o2)c2ccccc21 [Example 7, (E)-N′-[(2-chloro-1-(2-methoxyethyl)-1H-indol-3-yl]methylene}-5-methylbenzofuran-2-carbohydrazide]
IC50 (HeLa cells): 233 nM

CCOCCn1c(C(F)(F)F)c(/C=N/NC(=O)c2cc3cc(C)ccc3o2)c2ccccc21 [Example 6, (E)-N′-{[1-(2-ethoxyethyl)-2-(trifluoromethyl)-1H-indol-3-yl]methylene}-5-methylbenzofuran-2-carbohydrazide]
IC50 (HeLa cells): 1220 nM
